Among the data in ChEMBL document CHEMBL1770081, “Inhibition and structural reliability of prenylated flavones from the stem bark of Morus lhou on β-secretase (BACE-1)” (Bioorg Med Chem Lett, 2011) are IC50 and Ki values, retold here.

One may read the IC50 as the concentration at which inhibition is half-maximal. Broadly, the Ki is the equilibrium dissociation constant of an inhibitor or competing ligand from its target.

For test [1], the target named is T1, Beta-secretase 1 (Homo sapiens, UniProt P56817). Briefly: Inhibition of human recombinant BACE-1 expressed in HEK293 cells assessed as inhibition of amyloid precursor protein cleavage into amyloid beta after 60 mins using Rh-EVNLDAEFK-Quencher as a substrate by FRET assay. Format: cell-based.
T1 sequence (P56817 whole entry): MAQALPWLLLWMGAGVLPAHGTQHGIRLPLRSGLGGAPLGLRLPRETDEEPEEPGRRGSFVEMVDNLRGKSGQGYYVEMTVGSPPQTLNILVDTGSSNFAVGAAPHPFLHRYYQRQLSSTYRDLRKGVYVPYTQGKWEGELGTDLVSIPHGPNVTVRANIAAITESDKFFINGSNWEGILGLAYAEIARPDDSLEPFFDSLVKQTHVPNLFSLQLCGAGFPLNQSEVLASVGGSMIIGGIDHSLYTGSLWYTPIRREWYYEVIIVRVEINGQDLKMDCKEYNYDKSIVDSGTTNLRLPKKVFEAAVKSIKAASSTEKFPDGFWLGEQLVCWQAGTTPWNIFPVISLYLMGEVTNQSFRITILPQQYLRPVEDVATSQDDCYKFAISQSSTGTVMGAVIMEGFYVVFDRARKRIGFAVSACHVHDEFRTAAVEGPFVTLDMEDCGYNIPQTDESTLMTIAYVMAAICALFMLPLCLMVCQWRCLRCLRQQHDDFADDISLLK
Test [2] deals with T1, Beta-secretase 1. As to the kind of experiment: Noncompetitive inhibition of human recombinant BACE-1 by Dixon plot analysis.

In the case of `CC(C)=CCc1c(-c2ccc(O)cc2O)oc2c(CC=C(C)C)c(O)cc(O)c2c1=O` [KUWANON C], the IC50 at Beta-secretase 1 [1] stood at 3.4 µM. For the same compound, on Beta-secretase 1 [2], the Ki was 2.2 µM.

With `CC(C)=CC1Oc2cc(O)ccc2-c2oc3c4c(cc(O)c3c(=O)c21)OC(C)(C)C=C4` (configuration not stated) [CYCLOMORUSIN], the half-maximal inhibitory concentration (IC50) on Beta-secretase 1 [1] was determined as 101 µM.

Consider `O=c1cc(-c2ccc(O)cc2O)oc2cc(O)cc(O)c12` [NORARTOCARPETIN], for which, on Beta-secretase 1 [1], the IC50 is 60.6 µM. Further, the Ki at Beta-secretase 1 [2] is 82.6 µM.

Turning to `CC1(C)C=Cc2c(cc(O)c3c(=O)c4c(oc23)-c2ccc(O)cc2OC(C(C)(C)O)C4)O1` (configuration not stated) [NEOCYCLOMORUSIN], at Beta-secretase 1 [1], the IC50 turned out to be 146 µM.

Regarding `CC(C)(O)CCc1c(-c2ccc(O)cc2O)oc2c3c(cc(O)c2c1=O)OC(C)(C)C=C3` [MORUSINOL], on Beta-secretase 1 [1], the IC50 is 136 µM.

Regarding `CC(C)=CCc1c(-c2ccc(O)cc2O)oc2c3c(cc(O)c2c1=O)OC(C)(C)C=C3` [MORUSIN], on Beta-secretase 1 [1], the IC50 amounted to 59.4 µM. Besides, at Beta-secretase 1 [2], the Ki worked out at 64.1 µM.

Take `CC(C)=CCc1c(-c2ccc(O)c3c2OC(C)(C)C=C3)oc2cc(O)cc(O)c2c1=O` [KUWANON A]: on Beta-secretase 1 [1], the IC50 amounted to 5.3 µM. Besides, the Ki at Beta-secretase 1 [2] came out at 10.6 µM.

Turning to `C/C(=C/Cc1c(-c2ccc(O)cc2O)oc2c3c(cc(O)c2c1=O)OC(C)(CO)C=C3)CO` (configuration not stated) [MORMIN], the IC50 at Beta-secretase 1 [1] was 103 µM.
